These results are taken from the supplement of paper PMC10307832.

What all share (test): relative viability (nuclei count vs DMSO), 5 days (fraction); higher = more cells survive
Compound in the assay “BMX-IN-1 + Vorinostat”: C=CC(=O)Nc1cc(-n2c(=O)ccc3cnc4ccc(-c5ccc(NS(C)(=O)=O)cc5)cc4c32)ccc1C [BMX-IN-1] + O=C(CCCCCCC(=O)Nc1ccccc1)NO [Vorinostat] (partner 1 µM)
A digest of the protocol:
(§1)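 Nuclei were stained with Hoechst during a one-step fixation (final 0.05% Triton X-100, 1% formaldehyde, 1 ug/ml Hoechst) carried out 5 days after dosing, then counted on 4× images. The cells, lung cancer lines in 1536-well plates, had been dosed by pin tool the day after seeding with one drug alone or a fixed anchor-drug dose plus five library-drug doses (not always all listed) in √10 steps. Relative viability is the nuclei count in treated wells divided by that in vehicle wells, and each value is the median of duplicate plates.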

Compound in the assay “PAC-1 + Linsitinib”: C=CCc1cccc(/C=N/NC(=O)CN2CCN(Cc3ccccc3)CC2)c1O [PAC-1] + C[C@]1(O)C[C@@H](c2nc(-c3ccc4ccc(-c5ccccc5)nc4c3)c3c(N)nccn32)C1 [Linsitinib] (partner 1 µM)
An outline of the steps:
as §1

Compound in the assay “PAC-1 + Dasatinib”: C=CCc1cccc(/C=N/NC(=O)CN2CCN(Cc3ccccc3)CC2)c1O [PAC-1] + Cc1nc(Nc2ncc(C(=O)Nc3c(C)cccc3Cl)s2)cc(N2CCN(CCO)CC2)n1 [Dasatinib] (partner 0.075 µM)
An outline of the steps: as §1

Compound in the assay “Ibrutinib + Lapatinib”: C=CC(=O)N1CCC[C@@H](n2nc(-c3ccc(Oc4ccccc4)cc3)c3c(N)ncnc32)C1 [Ibrutinib] + CS(=O)(=O)CCNCc1ccc(-c2ccc3ncnc(Nc4ccc(OCc5cccc(F)c5)c(Cl)c4)c3c2)o1 [Lapatinib] (partner 2 µM)
A digest of the protocol: as §1

Take NCI-H1355: the relative viability in the assay with BMX-IN-1 + Vorinostat (first compound 0.02 µM) is 0.705; with BMX-IN-1 + Vorinostat (first compound 0.2 µM), 0.706; with BMX-IN-1 + Vorinostat (first compound 0.6325 µM), 0.697; in the assay with BMX-IN-1 + Vorinostat (first compound 2 µM), 0.76; with PAC-1 + Linsitinib (first compound 0.02 µM), 0.74; with PAC-1 + Linsitinib (first compound 0.06325 µM) it was 0.89. The relative viability with PAC-1 + Linsitinib (first compound 0.2 µM) was determined as 0.806; with PAC-1 + Linsitinib (first compound 2 µM), 0.803; with PAC-1 + Dasatinib (first compound 0.02 µM), 0.75; with PAC-1 + Dasatinib (first compound 0.06325 µM) it was 0.722; with PAC-1 + Dasatinib (first compound 0.2 µM), 0.667; with PAC-1 + Dasatinib (first compound 2 µM), 0.711. Moreover, the relative viability worked out at 0.975 with Ibrutinib + Lapatinib (first compound 0.01581 µM), 1.07 with Ibrutinib + Lapatinib (first compound 0.05 µM), 0.92 in the assay with Ibrutinib + Lapatinib (first compound 0.1581 µM) and 0.963 in the assay with Ibrutinib + Lapatinib (first compound 0.5 µM).

On to LK-2, for which the relative viability with BMX-IN-1 + Vorinostat (first compound 0.02 µM) is 0.289; with BMX-IN-1 + Vorinostat (first compound 0.2 µM), 0.151; in the assay with BMX-IN-1 + Vorinostat (first compound 0.6325 µM), 0.282; with BMX-IN-1 + Vorinostat (first compound 2 µM), 0.365; with PAC-1 + Linsitinib (first compound 0.02 µM) it was 0.49; with PAC-1 + Linsitinib (first compound 0.06325 µM), 0.807. In addition, the relative viability with PAC-1 + Linsitinib (first compound 0.2 µM) was determined as 0.537; with PAC-1 + Linsitinib (first compound 2 µM), 0.621; with PAC-1 + Dasatinib (first compound 0.02 µM), 0.259; in the assay with PAC-1 + Dasatinib (first compound 0.06325 µM), 0.332; in the assay with PAC-1 + Dasatinib (first compound 0.2 µM) it was 0.241; in the assay with PAC-1 + Dasatinib (first compound 2 µM) it was 0.31. For the same cell line, the relative viability is 0.602 with Ibrutinib + Lapatinib (first compound 0.005 µM); 0.93 in the assay with Ibrutinib + Lapatinib (first compound 0.01581 µM); 0.956 with Ibrutinib + Lapatinib (first compound 0.05 µM); 0.877 with Ibrutinib + Lapatinib (first compound 0.1581 µM); 0.769 with Ibrutinib + Lapatinib (first compound 0.5 µM).

With NCI-H1650, the relative viability was determined as 0.501 in the assay with BMX-IN-1 + Vorinostat (first compound 0.02 µM); 0.452 in the assay with BMX-IN-1 + Vorinostat (first compound 0.2 µM); 0.571 in the assay with BMX-IN-1 + Vorinostat (first compound 0.6325 µM); 0.522 with BMX-IN-1 + Vorinostat (first compound 2 µM); 0.363 with PAC-1 + Dasatinib (first compound 0.02 µM); 0.305 with PAC-1 + Dasatinib (first compound 0.06325 µM). Also, the relative viability with PAC-1 + Dasatinib (first compound 0.2 µM) is 0.263; with PAC-1 + Dasatinib (first compound 2 µM), 0.361; with Ibrutinib + Lapatinib (first compound 0.005 µM), 0.685; with Ibrutinib + Lapatinib (first compound 0.01581 µM), 0.734; in the assay with Ibrutinib + Lapatinib (first compound 0.05 µM), 0.843; with Ibrutinib + Lapatinib (first compound 0.1581 µM), 0.682. The relative viability with Ibrutinib + Lapatinib (first compound 0.5 µM) came out at 0.844.

For NCI-H838, the relative viability worked out at 0.827 with BMX-IN-1 + Vorinostat (first compound 0.02 µM); 0.64 in the assay with BMX-IN-1 + Vorinostat (first compound 0.2 µM); 0.728 with BMX-IN-1 + Vorinostat (first compound 0.6325 µM); 0.73 with BMX-IN-1 + Vorinostat (first compound 2 µM); 1.02 in the assay with PAC-1 + Linsitinib (first compound 0.02 µM); 0.982 with PAC-1 + Linsitinib (first compound 0.06325 µM). Besides, the relative viability with PAC-1 + Linsitinib (first compound 0.2 µM) was 0.925; with PAC-1 + Linsitinib (first compound 2 µM) it was 1.15; in the assay with PAC-1 + Dasatinib (first compound 0.02 µM) it was 0.247; with PAC-1 + Dasatinib (first compound 0.06325 µM), 0.278; with PAC-1 + Dasatinib (first compound 0.2 µM), 0.243; with PAC-1 + Dasatinib (first compound 2 µM), 0.311. The relative viability with Ibrutinib + Lapatinib (first compound 0.005 µM) was determined as 0.796; in the assay with Ibrutinib + Lapatinib (first compound 0.01581 µM) it was 0.893; in the assay with Ibrutinib + Lapatinib (first compound 0.05 µM), 1; with Ibrutinib + Lapatinib (first compound 0.1581 µM), 0.894; with Ibrutinib + Lapatinib (first compound 0.5 µM) it was 1.08.

On to EMC-BAC-2, for which the relative viability with BMX-IN-1 + Vorinostat (first compound 0.02 µM) was 0.497; in the assay with BMX-IN-1 + Vorinostat (first compound 0.2 µM), 0.58; in the assay with BMX-IN-1 + Vorinostat (first compound 0.6325 µM), 0.414; with BMX-IN-1 + Vorinostat (first compound 2 µM), 0.45; with PAC-1 + Linsitinib (first compound 0.02 µM), 0.8; with PAC-1 + Linsitinib (first compound 0.06325 µM), 0.815. Moreover, the relative viability with PAC-1 + Linsitinib (first compound 0.2 µM) is 0.825; with PAC-1 + Linsitinib (first compound 2 µM), 0.82; in the assay with PAC-1 + Dasatinib (first compound 0.02 µM), 0.388; with PAC-1 + Dasatinib (first compound 0.06325 µM), 0.303; with PAC-1 + Dasatinib (first compound 0.2 µM), 0.346; with PAC-1 + Dasatinib (first compound 2 µM), 0.326. Besides, the relative viability with Ibrutinib + Lapatinib (first compound 0.005 µM) is 0.827; with Ibrutinib + Lapatinib (first compound 0.01581 µM), 0.864; with Ibrutinib + Lapatinib (first compound 0.05 µM) it was 0.858; with Ibrutinib + Lapatinib (first compound 0.1581 µM) it was 0.909; in the assay with Ibrutinib + Lapatinib (first compound 0.5 µM) it was 0.899.

For SW 1573, the relative viability with BMX-IN-1 + Vorinostat (first compound 0.02 µM) amounted to 0.845; with BMX-IN-1 + Vorinostat (first compound 0.2 µM), 0.98; in the assay with BMX-IN-1 + Vorinostat (first compound 0.6325 µM) it was 0.709; with BMX-IN-1 + Vorinostat (first compound 2 µM), 0.0976; in the assay with PAC-1 + Linsitinib (first compound 0.02 µM) it was 0.826; with PAC-1 + Linsitinib (first compound 0.06325 µM) it was 0.76. The relative viability with PAC-1 + Linsitinib (first compound 0.2 µM) turned out to be 0.759; with PAC-1 + Linsitinib (first compound 2 µM) it was 0.914; with PAC-1 + Dasatinib (first compound 0.02 µM), 0.537; in the assay with PAC-1 + Dasatinib (first compound 0.06325 µM) it was 0.561; with PAC-1 + Dasatinib (first compound 0.2 µM), 0.44; with PAC-1 + Dasatinib (first compound 2 µM) it was 0.52. The relative viability with Ibrutinib + Lapatinib (first compound 0.005 µM) was found to be 1.01; with Ibrutinib + Lapatinib (first compound 0.01581 µM), 1.22; in the assay with Ibrutinib + Lapatinib (first compound 0.05 µM), 1.3; with Ibrutinib + Lapatinib (first compound 0.1581 µM), 1; in the assay with Ibrutinib + Lapatinib (first compound 0.5 µM), 1.22.

For the cell line CAL-12T, the relative viability came to 1.11 with BMX-IN-1 + Vorinostat (first compound 0.02 µM); 0.951 with BMX-IN-1 + Vorinostat (first compound 0.2 µM); 0.756 with BMX-IN-1 + Vorinostat (first compound 0.6325 µM); 0.812 with BMX-IN-1 + Vorinostat (first compound 2 µM); 0.925 in the assay with PAC-1 + Linsitinib (first compound 0.02 µM); 0.823 in the assay with PAC-1 + Linsitinib (first compound 0.06325 µM). The relative viability in the assay with PAC-1 + Linsitinib (first compound 0.2 µM) was found to be 0.669; in the assay with PAC-1 + Linsitinib (first compound 2 µM), 0.808; in the assay with PAC-1 + Dasatinib (first compound 0.02 µM), 0.288; in the assay with PAC-1 + Dasatinib (first compound 0.06325 µM), 0.393; with PAC-1 + Dasatinib (first compound 0.2 µM), 0.459; with PAC-1 + Dasatinib (first compound 2 µM) it was 0.404. Moreover, the relative viability is 0.615 with Ibrutinib + Lapatinib (first compound 0.005 µM); 0.67 with Ibrutinib + Lapatinib (first compound 0.01581 µM); 0.711 in the assay with Ibrutinib + Lapatinib (first compound 0.05 µM); 0.647 with Ibrutinib + Lapatinib (first compound 0.1581 µM); 0.683 in the assay with Ibrutinib + Lapatinib (first compound 0.5 µM).

With EBC-1, the relative viability stood at 0.832 with PAC-1 + Linsitinib (first compound 0.02 µM); 0.923 with PAC-1 + Linsitinib (first compound 0.06325 µM); 0.821 in the assay with PAC-1 + Linsitinib (first compound 0.2 µM); 0.86 in the assay with PAC-1 + Linsitinib (first compound 2 µM); 0.199 with Ibrutinib + Lapatinib (first compound 0.005 µM); 0.197 with Ibrutinib + Lapatinib (first compound 0.01581 µM). Further, the relative viability with Ibrutinib + Lapatinib (first compound 0.05 µM) worked out at 0.219; with Ibrutinib + Lapatinib (first compound 0.1581 µM) it was 0.186; with Ibrutinib + Lapatinib (first compound 0.5 µM), 0.238.

For A549, the relative viability was found to be 0.527 with PAC-1 + Linsitinib (first compound 0.02 µM); 0.612 with PAC-1 + Linsitinib (first compound 0.06325 µM); 0.523 in the assay with PAC-1 + Linsitinib (first compound 0.2 µM); 0.583 with PAC-1 + Linsitinib (first compound 2 µM); 0.931 with Ibrutinib + Lapatinib (first compound 0.005 µM); 0.916 with Ibrutinib + Lapatinib (first compound 0.01581 µM). Further, the relative viability in the assay with Ibrutinib + Lapatinib (first compound 0.05 µM) came out at 1.05; in the assay with Ibrutinib + Lapatinib (first compound 0.1581 µM) it was 1.08; with Ibrutinib + Lapatinib (first compound 0.5 µM), 1.02.

For NCI-H522, the relative viability in the assay with BMX-IN-1 + Vorinostat (first compound 0.02 µM) was 0.979; with BMX-IN-1 + Vorinostat (first compound 0.2 µM), 0.786; with BMX-IN-1 + Vorinostat (first compound 0.6325 µM), 0.832; with BMX-IN-1 + Vorinostat (first compound 2 µM), 0.968; with PAC-1 + Dasatinib (first compound 0.02 µM), 0.881; with PAC-1 + Dasatinib (first compound 0.06325 µM) it was 0.91. Besides, the relative viability with PAC-1 + Dasatinib (first compound 0.2 µM) is 0.894; with PAC-1 + Dasatinib (first compound 2 µM), 0.899.
